Test results from patent US20250382332A1, “NOVEL ALPHA-FACTOR BASED PEPTIDES WITH ANTIFUNGAL ACTIVITY” (INVAIO SCIENCES, INC., priority 2024, published 2025).
Peptide text beside a SMILES is read from it.

Test system: Botrytis cinerea (B05.10)
Assay: Resazurin antifungal assay of 180 alpha-factor peptide variants towards Botrytis (Example 2)
Format: cell-based
Conditions: % inhibition of fungal growth, Botrytis conidia, resazurin; for Inhibition at 50 μM: peptide 50 μM; for Inhibition at 100 μM: peptide 100 μM
Method in brief: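 B. cinerea B05.10 conidia (5000/well) were exposed to peptides at 100, 50, 20, 15 and 10 μM final for 24 h at 20° C. Resazurin was then added and fluorescence read at 570/620 nm. Percent growth inhibition was calculated against conidia-only wells, with four technical replicates.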

SMILES	Inhibition at 50 μM [%]	Inhibition at 100 μM [%]
CC[C@H](C)[C@H](NC(=O)[C@H](Cc1c[nH]c2ccccc12)NC(=O)[C@H](Cc1c[nH]cn1)NC(=O)[C@@H](N)Cc1c[nH]c2ccccc12)C(=O)N[C@@H](CC(N)=O)C(=O)N[C@@H](CC(C)C)C(=O)N[C@@H](Cc1c[nH]c2ccccc12)C(=O)N1CCC[C@H]1C(=O)NCC(=O)N[C@@H](CCC(N)=O)C(=O)N1CCC[C@H]1C(=O)N[C@@H](CCSC)C(=O)N[C@@H](Cc1ccc(O)cc1)C(=O)O [compound 114] (H-WHWINLWPGQPMY-OH; N-terminus and C-terminus assumed)	<90	100
CSCC[C@H](NC(=O)[C@@H]1CCCN1C(=O)[C@H](CCC(N)=O)NC(=O)CNC(=O)[C@H](CC(C)C)NC(=O)[C@H](CCCCN)NC(=O)[C@H](CC(C)C)NC(=O)[C@H](CCC(N)=O)NC(=O)[C@H](CC(C)C)NC(=O)[C@@H](NC(=O)[C@H](CCCCN)NC(=O)[C@@H](N)CCCCN)C(C)C)C(=O)N[C@@H](Cc1ccc(O)cc1)C(=O)O [compound 115] (H-KKVLQLKLGQPMY-OH; N-terminus and C-terminus assumed)	<90	99.72
CSCC[C@H](NC(=O)[C@@H]1CCCN1C(=O)[C@H](CCC(N)=O)NC(=O)CNC(=O)[C@@H]1CCCN1C(=O)[C@H](CCCCN)NC(=O)[C@H](Cc1ccccc1)NC(=O)[C@H](CCCCN)NC(=O)[C@H](CC(C)C)NC(=O)[C@H](CC(=O)O)NC(=O)[C@H](Cc1c[nH]cn1)NC(=O)[C@@H](N)CCCCN)C(=O)N[C@@H](Cc1ccc(O)cc1)C(=O)O [compound 116] (H-KHDLKFKPGQPMY-OH; N-terminus and C-terminus assumed)	<90	93.51
CSCC[C@H](NC(=O)[C@@H]1CCCN1C(=O)[C@H](CCC(N)=O)NC(=O)CNC(=O)[C@@H]1CCCN1C(=O)[C@H](CCCCN)NC(=O)[C@H](CC(C)C)NC(=O)[C@H](CCC(N)=O)NC(=O)CNC(=O)[C@H](CO)NC(=O)[C@H](CCC(N)=O)NC(=O)[C@@H](N)Cc1c[nH]c2ccccc12)C(=O)N[C@@H](Cc1ccc(O)cc1)C(=O)O [compound 117] (H-WQSGQLKPGQPMY-OH; N-terminus and C-terminus assumed)	<90	<90
CSCC[C@H](NC(=O)[C@H](Cc1c[nH]cn1)NC(=O)[C@@H](N)Cc1c[nH]c2ccccc12)C(=O)N[C@@H](CC(C)C)C(=O)N[C@@H](CC(N)=O)C(=O)N[C@@H](Cc1ccccc1)C(=O)N[C@@H](CCCCN)C(=O)N1CCC[C@H]1C(=O)NCC(=O)N[C@@H](CCC(N)=O)C(=O)N1CCC[C@H]1C(=O)N[C@@H](CCSC)C(=O)N[C@@H](Cc1ccc(O)cc1)C(=O)O [compound 118] (H-WHMLNFKPGQPMY-OH; N-terminus and C-terminus assumed)	<90	<90
CSCC[C@H](NC(=O)[C@@H]1CCCN1C(=O)[C@H](CCC(=O)O)NC(=O)CNC(=O)[C@@H](NC(=O)CNC(=O)[C@H](CC(C)C)NC(=O)[C@H](CCCCN)NC(=O)[C@H](CC(C)C)NC(=O)[C@H](Cc1c[nH]c2ccccc12)NC(=O)[C@H](Cc1c[nH]cn1)NC(=O)[C@@H](N)Cc1c[nH]c2ccccc12)[C@@H](C)O)C(=O)N[C@@H](Cc1ccc(O)cc1)C(=O)O [compound 119] (H-WHWLKLGTGEPMY-OH; N-terminus and C-terminus assumed)	<90	98.65
CC[C@H](C)[C@H](NC(=O)[C@H](CCC(N)=O)NC(=O)CNC(=O)[C@H](CCSC)NC(=O)[C@H](CO)NC(=O)[C@@H](N)Cc1c[nH]c2ccccc12)C(=O)N[C@@H](CCCCN)C(=O)N1CCC[C@H]1C(=O)NCC(=O)N[C@@H](CO)C(=O)N1CCC[C@H]1C(=O)N[C@@H](CCSC)C(=O)N[C@@H](Cc1ccc(O)cc1)C(=O)O [compound 120] (H-WSMGQIKPGSPMY-OH; N-terminus and C-terminus assumed)	<90	<90
CC[C@H](C)[C@H](NC(=O)[C@H](CCC(N)=O)NC(=O)[C@H](CC(C)C)NC(=O)CNC(=O)[C@H](CO)NC(=O)[C@@H]1CCCN1)C(=O)N[C@@H](CCCCN)C(=O)N[C@H](C(=O)NCC(=O)N[C@@H](CCC(N)=O)C(=O)N1CCC[C@H]1C(=O)N[C@@H](CCSC)C(=O)N[C@@H](Cc1ccc(O)cc1)C(=O)O)C(C)C [compound 121] (H-PSGLQIKVGQPMY-OH; N-terminus and C-terminus assumed)	<90	<90
CSCC[C@H](NC(=O)[C@H](CO)NC(=O)[C@H](CO)NC(=O)CNC(=O)[C@@H]1CCCN1C(=O)[C@H](CCCCN)NC(=O)[C@H](CC(C)C)NC(=O)[C@H](CO)NC(=O)[C@H](CC(C)C)NC(=O)[C@H](Cc1c[nH]c2ccccc12)NC(=O)[C@H](CCC(=O)O)NC(=O)[C@@H]1CCCN1)C(=O)N[C@@H](Cc1ccc(O)cc1)C(=O)O [compound 122] (H-PEWLSLKPGSSMY-OH; N-terminus and C-terminus assumed)	<90	<90
CSCC[C@H](NC(=O)CNC(=O)[C@H](CCC(N)=O)NC(=O)CNC(=O)[C@H](Cc1ccc(O)cc1)NC(=O)[C@H](CCCCN)NC(=O)[C@H](CC(C)C)NC(=O)[C@H](CCC(N)=O)NC(=O)[C@@H](NC(=O)[C@H](Cc1c[nH]c2ccccc12)NC(=O)[C@H](CCC(N)=O)NC(=O)[C@@H](N)CCCCN)C(C)C)C(=O)N[C@@H](Cc1ccc(O)cc1)C(=O)O [compound 123] (H-KQWVQLKYGQGMY-OH; N-terminus and C-terminus assumed)	<90	100
CC[C@H](C)[C@H](NC(=O)CNC(=O)[C@H](Cc1c[nH]cn1)NC(=O)[C@@H](N)Cc1c[nH]c2ccccc12)C(=O)N[C@@H](CCC(N)=O)C(=O)N[C@@H](CC(C)C)C(=O)N[C@@H](Cc1ccccc1)C(=O)N[C@@H](CCCCN)C(=O)NCC(=O)N[C@@H](CCC(N)=O)C(=O)N1CCC[C@H]1C(=O)N[C@@H](CCSC)C(=O)N[C@@H](Cc1ccc(O)cc1)C(=O)O [compound 124] (H-WHGIQLFKGQPMY-OH; N-terminus and C-terminus assumed)	<90	100
CSCC[C@H](NC(=O)[C@@H]1CCCN1C(=O)[C@H](CCC(N)=O)NC(=O)CNC(=O)[C@@H]1CCCN1C(=O)[C@H](Cc1ccc(O)cc1)NC(=O)[C@H](CC(C)C)NC(=O)[C@H](CCC(N)=O)NC(=O)[C@@H](NC(=O)[C@H](Cc1c[nH]c2ccccc12)NC(=O)[C@H](CCC(=O)O)NC(=O)[C@@H](N)CCCCN)C(C)C)C(=O)N[C@@H](Cc1ccc(O)cc1)C(=O)O [compound 125] (H-KEWVQLYPGQPMY-OH; N-terminus and C-terminus assumed)	<90	<90
CSCC[C@H](NC(=O)CNC(=O)[C@H](CCC(N)=O)NC(=O)CNC(=O)[C@@H]1CCCN1C(=O)[C@H](CCCCN)NC(=O)[C@H](Cc1ccccc1)NC(=O)[C@H](CCC(=O)O)NC(=O)[C@H](CC(C)C)NC(=O)[C@H](CC(=O)O)NC(=O)[C@H](Cc1c[nH]cn1)NC(=O)[C@@H]1CCCN1)C(=O)N[C@@H](Cc1ccc(O)cc1)C(=O)O [compound 126] (H-PHDLEFKPGQGMY-OH; N-terminus and C-terminus assumed)	<90	<90
CC[C@H](C)[C@H](NC(=O)[C@H](CO)NC(=O)[C@H](CCCCN)NC(=O)[C@@H](N)Cc1c[nH]c2ccccc12)C(=O)N[C@@H](CC(N)=O)C(=O)N[C@@H](Cc1ccccc1)C(=O)N[C@@H](CCCCN)C(=O)N1CCC[C@H]1C(=O)NCC(=O)N[C@@H](CCC(N)=O)C(=O)N1CCC[C@H]1C(=O)N[C@@H](CCSC)C(=O)N[C@@H](Cc1ccc(O)cc1)C(=O)O [compound 127] (H-WKSINFKPGQPMY-OH; N-terminus and C-terminus assumed)	<90	<90
CSCC[C@H](NC(=O)[C@@H]1CCCN1C(=O)[C@H](CCC(N)=O)NC(=O)CNC(=O)[C@@H]1CCCN1C(=O)[C@H](CC(=O)O)NC(=O)[C@H](Cc1ccccc1)NC(=O)[C@H](CCC(=O)O)NC(=O)[C@@H](NC(=O)[C@H](Cc1c[nH]c2ccccc12)NC(=O)[C@H](Cc1c[nH]cn1)NC(=O)[C@@H]1CCCN1)C(C)C)C(=O)N[C@@H](Cc1ccc(O)cc1)C(=O)O [compound 128] (H-PHWVEFDPGQPMY-OH; N-terminus and C-terminus assumed)	<90	<90
CSCC[C@H](NC(=O)[C@@H]1CCCN1C(=O)[C@H](CCC(N)=O)NC(=O)CNC(=O)[C@@H]1CCCN1C(=O)[C@H](Cc1c[nH]cn1)NC(=O)[C@H](CC(C)C)NC(=O)[C@H](CCC(=O)O)NC(=O)[C@H](CC(C)C)NC(=O)CNC(=O)[C@H](CCC(N)=O)NC(=O)[C@@H](N)Cc1c[nH]c2ccccc12)C(=O)N[C@@H](Cc1ccc(O)cc1)C(=O)O [compound 129] (H-WQGLELHPGQPMY-OH; N-terminus and C-terminus assumed)	<90	<90
CSCC[C@H](NC(=O)[C@@H]1CCCN1C(=O)[C@H](CO)NC(=O)CNC(=O)[C@@H]1CCCN1C(=O)[C@H](CCCCN)NC(=O)[C@H](CC(C)C)NC(=O)[C@@H](NC(=O)[C@H](CC(C)C)NC(=O)[C@@H](NC(=O)[C@H](CCC(=O)O)NC(=O)[C@@H](N)Cc1c[nH]c2ccccc12)C(C)C)[C@@H](C)O)C(=O)N[C@@H](Cc1ccc(O)cc1)C(=O)O [compound 130] (H-WEVLTLKPGSPMY-OH; N-terminus and C-terminus assumed)	<90	<90
